In the assay the target is T1, human GLP-1 receptor (Homo sapiens, UniProt P43220).
T1 construct: expressed in transfected cells; host or cells: BHK cells, clone BHK-467-12A; plasma membrane preparation
Put plainly: Functional receptor assay: cAMP formation in plasma membranes of BHK cells expressing the cloned human GLP-1 receptor (GLP1cAMPma). It is filed as biochemical. The method, then:
The term “insulinotropic agent” as used herein means a compound which is an agonist of the human GLP-1 receptor, i.e. a compound which stimulates the formation of cAMP in a suitable medium containing the human GLP-1 receptor (one such medium disclosed below). The potency of an insulinotropic agent is determined by calculating the EC50 value from the dose-response curve as described below.
The cells were washed twice in phosphate buffered saline and harvested with Versene. Plasma membranes were prepared from the cells by homogenisation with an Ultraturrax in buffer 1 (20 mM HEPES-Na, 10 mM EDTA, pH 7.4). The homogenate was centrifuged at 48,000×g for 15 min at 4° C. The pellet was suspended by homogenization in buffer 2 (20 mM HEPES-Na, 0.1 mM EDTA, pH 7.4), then centrifuged at 48,000×g for 15 min at 4° C. The washing procedure was repeated one more time. The final pellet was suspended in buffer 2 and used immediately for assays or stored at −80° C.
The functional receptor assay was carried out by measuring cyclic AMP (cAMP) as a response to stimulation by the insulinotropic agent. cAMP formed was quantified by the AlphaScreen™ cAMP Kit (Perkin Elmer Life Sciences). Incubations were carried out in half-area 96-well microtiter plates in a total volume of 50 μL buffer 3 (50 mM Tris-HCl, 5 mM HEPES, 10 mM MgCl2, pH 7.4) and with the following additions: 1 mM ATP, 1 μM GTP, 0.5 mM 3-isobutyl-1-methylxanthine (IBMX), 0.01% Tween-20, 0.1% BSA, 6 μg membrane preparation, 15 μg/mL acceptor beads, 20 μg/mL donor beads preincubated with 6 nM biotinyl-cAMP. […] GTP was freshly prepared for each experiment. The plate was incubated in the dark with slow agitation for three hours at room temperature followed by counting in the Fusion™ instrument (Perkin Elmer Life Sciences). Concentration-response curves were plotted for the individual compounds and EC50 values estimated using a four-parameter logistic model with Prism v. 4.0 (GraphPad, Carlsbad, Calif.).
A general note: Changes in cAMP serve as a functional read-out for many G protein-coupled receptors.

The mark [1] stands for this setting: cAMP, membranes with human GLP-1 receptor, mean value, read-out: GLP1cAMPma (3693) [EC50 (nM)] Mean Value.

Where two headings read alike, the source gives them in different places. Starred links: 1 amine or outer side, 2 acyl side, 3 side chain; linkers in the order of their positions; H or OH if unused. Residues, ends and D or L forms follow the SMILES beside them. Groups on a side chain read outwards from the residue. *: point of attachment. C18 diacid = O=C(O)CCCCCCCCCCCCCCCCC(=O)*; γGlu = O=C(O)[C@H](CCC(=O)[*:2])N[*:1]; Stearoyl = CCCCCCCCCCCCCCCCCC(=O)*; Palmitoyl = CCCCCCCCCCCCCCCC(=O)*; AEEA = NCCOCCOCC(=O)O

T1 sequence (P43220 24-463): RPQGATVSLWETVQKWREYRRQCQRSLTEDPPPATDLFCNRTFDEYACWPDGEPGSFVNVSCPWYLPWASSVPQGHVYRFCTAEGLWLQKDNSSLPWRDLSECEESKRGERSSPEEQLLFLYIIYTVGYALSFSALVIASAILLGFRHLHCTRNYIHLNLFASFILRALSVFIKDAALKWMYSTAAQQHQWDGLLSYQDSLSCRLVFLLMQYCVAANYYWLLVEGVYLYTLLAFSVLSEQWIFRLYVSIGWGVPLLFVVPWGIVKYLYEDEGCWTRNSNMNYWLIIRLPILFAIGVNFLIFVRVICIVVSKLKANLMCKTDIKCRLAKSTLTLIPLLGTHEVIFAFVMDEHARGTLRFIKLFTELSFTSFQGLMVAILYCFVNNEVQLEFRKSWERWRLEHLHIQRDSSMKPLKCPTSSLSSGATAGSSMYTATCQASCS

As a reminder, the EC50 is the concentration that produces a half-maximal response. In turn, `CCCCCCCCCCCCCCCCCC(=O)NCCOCCOCC(=O)NCCOCCOCC(=O)NCCOCCOCC(=O)NCCCC[C@H](NC(=O)[C@@H](NC(=O)[C@H](CC(C)C)NC(=O)[C@H](Cc1c[nH]c2ccccc12)NC(=O)[C@H](CCC(=O)O)NC(=O)[C@@H](NC(=O)[C@H](Cc1ccccc1)NC(=O)[C@H](CC(C)C)NC(=O)[C@H](CCCNC(=N)N)NC(=O)[C@@H](NC(=O)[C@H](C)NC(=O)[C@H](CCC(=O)O)NC(=O)[C@H](CCC(=O)O)NC(=O)[C@H](CCC(=O)O)NC(=O)[C@H](CC(C)C)NC(=O)[C@H](CCC(N)=O)NC(=O)[C@H](CCCNC(=N)N)NC(=O)[C@H](CO)NC(=O)[C@H](CC(C)C)NC(=O)[C@H](CC(=O)O)NC(=O)[C@H](CO)NC(=O)[C@@H](NC(=O)[C@H](Cc1ccccc1)NC(=O)[C@@H](NC(=O)CNC(=O)[C@H](CCC(=O)O)NC(=O)CNC(=O)[C@@H](N)Cc1c[nH]cn1)[C@@H](C)O)[C@@H](C)O)C(C)C)[C@@H](C)CC)C(C)C)C(=O)NCC(=O)NCC(=O)N1CCC[C@H]1C(=O)N[C@@H](CO)C(=O)N[C@@H](CO)C(=O)NCC(=O)N[C@@H](C)C(=O)N1CCC[C@H]1C(=O)N1CCC[C@H]1C(=O)N1CCC[C@H]1C(=O)N[C@@H](CO)C(N)=O` [Example 3, N-ε^28-(2-(2-(2-(2-(2-(2-(2-(2-(2-(Octadecanoylamino)ethoxy)ethoxy)acetylamino)ethoxy)ethoxy)acetyl-amino)ethoxy)ethoxy)acetyl))[Arg^12,Leu^14,Val^27,Lys^28 Exendin-4(1-39)amide] (H-HGEGTFTSDLSRQLEEEAVRLFIEWLVK([AEEA-AEEA-AEEA-Stearoyl])GGPSSGAPPPS-NH2; N-terminus assumed) gave an EC50 of 0.025 nM.
Turning to `CCCCCCCCCCCCCCCC(=O)N[C@@H](CCC(=O)NCCOCCOCC(=O)NCCOCCOCC(=O)NCCCC[C@H](NC(=O)[C@@H](NC(=O)[C@H](C)NC(=O)[C@H](CCC(=O)O)NC(=O)[C@H](CCC(=O)O)NC(=O)[C@H](CCC(=O)O)NC(=O)[C@H](CC(C)C)NC(=O)[C@H](CCC(N)=O)NC(=O)[C@H](CCCNC(=N)N)NC(=O)[C@H](CO)NC(=O)[C@H](CC(C)C)NC(=O)[C@H](CC(=O)O)NC(=O)[C@H](CO)NC(=O)[C@@H](NC(=O)[C@H](Cc1ccccc1)NC(=O)[C@@H](NC(=O)CNC(=O)[C@H](CCC(=O)O)NC(=O)CNC(=O)[C@@H](N)Cc1c[nH]cn1)[C@@H](C)O)[C@@H](C)O)C(C)C)C(=O)N[C@@H](CC(C)C)C(=O)N[C@@H](Cc1ccccc1)C(=O)N[C@H](C(=O)N[C@@H](CCC(=O)O)C(=O)N[C@@H](Cc1c[nH]c2ccccc12)C(=O)N[C@@H](CC(C)C)C(=O)N[C@@H](CCCNC(=N)N)C(=O)N[C@@H](CCC(N)=O)C(=O)NCC(=O)NCC(=O)N1CCC[C@H]1C(=O)N[C@@H](CO)C(=O)N[C@@H](CO)C(=O)NCC(=O)N[C@@H](C)C(=O)N1CCC[C@H]1C(=O)N1CCC[C@H]1C(=O)N1CCC[C@H]1C(=O)N[C@@H](CO)C(N)=O)[C@@H](C)CC)C(=O)O` [Example 18, N-ε^20-2-(2-(2-(2-(2-(2-(4-(Hexadecanoylamino)-4(S)-carboxybutyrylamino)ethoxy)ethoxy)acetylamino)ethoxy)ethoxy)acetyl[Arg^12,27,Leu^14,Lys^20,Gln^28]Exendin-4-(1-39)-peptide amide] (H-HGEGTFTSDLSRQLEEEAVK([AEEA-AEEA-γGlu-Palmitoyl])LFIEWLRQGGPSSGAPPPS-NH2; N-terminus assumed), the EC50 under setting [1] came to 0.033 nM.
As for `CCCCCCCCCCCCCCCC(=O)N[C@@H](CCC(=O)NCCOCCOCC(=O)NCCOCCOCC(=O)NCCCC[C@H](NC(=O)[C@@H](NC(=O)[C@H](C)NC(=O)[C@H](CCC(=O)O)NC(=O)[C@H](CCC(=O)O)NC(=O)[C@H](CCC(=O)O)NC(=O)[C@H](CC(C)C)NC(=O)[C@H](CCC(N)=O)NC(=O)[C@H](CCC(N)=O)NC(=O)[C@H](CO)NC(=O)[C@H](CC(C)C)NC(=O)[C@H](CC(=O)O)NC(=O)[C@H](CO)NC(=O)[C@@H](NC(=O)[C@H](Cc1ccccc1)NC(=O)[C@@H](NC(=O)CNC(=O)[C@H](CCC(=O)O)NC(=O)CNC(=O)[C@@H](N)Cc1c[nH]cn1)[C@@H](C)O)[C@@H](C)O)C(C)C)C(=O)N[C@@H](CC(C)C)C(=O)N[C@@H](Cc1ccccc1)C(=O)N[C@H](C(=O)N[C@@H](CCC(=O)O)C(=O)N[C@@H](Cc1c[nH]c2ccccc12)C(=O)N[C@@H](CC(C)C)C(=O)N[C@@H](CCCCN)C(=O)N[C@@H](CCC(N)=O)C(=O)NCC(=O)NCC(=O)N1CCC[C@H]1C(=O)N[C@@H](CO)C(=O)N[C@@H](CO)C(=O)NCC(=O)N[C@@H](C)C(=O)N1CCC[C@H]1C(=O)N1CCC[C@H]1C(=O)N1CCC[C@H]1C(=O)N[C@@H](CO)C(N)=O)[C@@H](C)CC)C(=O)O` [Example 48] (H-HGEGTFTSDLSQQLEEEAVK([AEEA-AEEA-γGlu-Palmitoyl])LFIEWLKQGGPSSGAPPPS-NH2; N-terminus assumed), the concentration for a half-maximal effect (EC50) turned out to be 0.021 nM.
In the case of `CC[C@H](C)[C@H](NC(=O)[C@H](Cc1ccccc1)NC(=O)[C@H](CC(C)C)NC(=O)[C@H](CCCNC(=N)N)NC(=O)[C@@H](NC(=O)[C@H](C)NC(=O)[C@H](CCC(=O)O)NC(=O)[C@H](CCC(=O)O)NC(=O)[C@H](CCC(=O)O)NC(=O)[C@H](CCCCNC(=O)COCCOCCNC(=O)COCCOCCNC(=O)CCCCCCCCCCCCCCCCC(=O)O)NC(=O)[C@H](CCC(N)=O)NC(=O)[C@H](CCCNC(=N)N)NC(=O)[C@H](CO)NC(=O)[C@H](CC(C)C)NC(=O)[C@H](CC(=O)O)NC(=O)[C@H](CO)NC(=O)[C@@H](NC(=O)[C@H](Cc1ccccc1)NC(=O)[C@@H](NC(=O)CNC(=O)[C@H](CCC(=O)O)NC(=O)CNC(=O)[C@@H](N)Cc1c[nH]cn1)[C@@H](C)O)[C@@H](C)O)C(C)C)C(=O)N[C@@H](CCC(=O)O)C(=O)N[C@@H](Cc1c[nH]c2ccccc12)C(=O)N[C@@H](CC(C)C)C(=O)N[C@H](C(=O)N[C@@H](CCCNC(=N)N)C(=O)NCC(=O)NCC(=O)N1CCC[C@H]1C(=O)N[C@@H](CO)C(=O)N[C@@H](CO)C(=O)NCC(=O)N[C@@H](C)C(=O)N1CCC[C@H]1C(=O)N1CCC[C@H]1C(=O)N1CCC[C@H]1C(=O)N[C@@H](CO)C(N)=O)C(C)C` [Example 27] (H-HGEGTFTSDLSRQK([AEEA-AEEA-C18 diacid])EEEAVRLFIEWLVRGGPSSGAPPPS-NH2; N-terminus assumed), under setting [1], the EC50 amounted to 3.65 nM.

The values are drawn from patent publication US9012398B2, “Acylated exendin-4 compounds” (priority 2006, dated 2015).
